# ChEMBL document CHEMBL2429832, “N-substituted 8-aminopentacyclo[5.4.0.0(2,6).0(3,10).0(5,9)]undecanes as σ receptor ligands with potential neuroprotective effects” (Bioorg Med Chem, 2013)
# Experiments:
# D(1B) dopamine receptor = D(1B) dopamine receptor (Homo sapiens, UniProt P21918); test: Inhibition of dopamine D5 receptor (unknown origin) at 10 uM by PDSP assay relative to control
# [1] = molecular target: T1, Alpha-1B adrenergic receptor (Homo sapiens) (UniProt P35368); test: Inhibition of adrenergic alpha1B receptor (unknown origin) at 10 uM by PDSP assay relative to control
# T1 sequence (whole entry): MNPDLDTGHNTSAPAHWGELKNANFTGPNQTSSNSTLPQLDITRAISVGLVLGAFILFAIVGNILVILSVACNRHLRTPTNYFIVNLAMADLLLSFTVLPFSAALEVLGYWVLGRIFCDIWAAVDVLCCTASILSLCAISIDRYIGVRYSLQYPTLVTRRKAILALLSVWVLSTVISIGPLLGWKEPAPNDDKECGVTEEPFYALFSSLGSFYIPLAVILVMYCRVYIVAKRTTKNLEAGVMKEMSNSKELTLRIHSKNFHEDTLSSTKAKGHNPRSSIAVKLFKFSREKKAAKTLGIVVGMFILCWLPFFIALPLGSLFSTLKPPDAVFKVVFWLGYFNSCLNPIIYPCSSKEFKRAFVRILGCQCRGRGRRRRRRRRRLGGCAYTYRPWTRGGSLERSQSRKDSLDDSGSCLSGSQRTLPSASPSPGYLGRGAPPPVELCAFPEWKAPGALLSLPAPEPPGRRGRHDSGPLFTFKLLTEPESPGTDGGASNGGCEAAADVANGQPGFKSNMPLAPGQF
# [2] = molecular target: T2, Muscarinic acetylcholine receptor M5 (Homo sapiens, UniProt P08912); test: Inhibition of muscarinic M5 receptor (unknown origin) by PDSP assay
# T2 sequence (P08912 whole entry): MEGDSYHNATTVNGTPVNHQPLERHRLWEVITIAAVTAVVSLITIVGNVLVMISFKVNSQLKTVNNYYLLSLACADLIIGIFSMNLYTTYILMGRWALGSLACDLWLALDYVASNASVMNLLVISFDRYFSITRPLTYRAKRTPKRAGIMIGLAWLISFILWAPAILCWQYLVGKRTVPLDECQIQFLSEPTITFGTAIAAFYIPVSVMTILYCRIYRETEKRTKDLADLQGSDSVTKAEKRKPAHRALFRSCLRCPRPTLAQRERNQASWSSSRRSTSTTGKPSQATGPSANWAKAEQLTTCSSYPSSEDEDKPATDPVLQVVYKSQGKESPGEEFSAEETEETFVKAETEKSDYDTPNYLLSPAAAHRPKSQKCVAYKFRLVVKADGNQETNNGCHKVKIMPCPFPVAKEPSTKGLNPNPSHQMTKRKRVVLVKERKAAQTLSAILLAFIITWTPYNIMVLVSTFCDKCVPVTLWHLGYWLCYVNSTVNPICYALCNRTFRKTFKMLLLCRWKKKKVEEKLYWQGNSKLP
# [3] = molecular target: Muscarinic acetylcholine receptor M3 (Homo sapiens, UniProt P20309); test: Inhibition of muscarinic M3 receptor (unknown origin) by PDSP assay
# Muscarinic acetylcholine receptor M3, sequence (P20309 whole entry): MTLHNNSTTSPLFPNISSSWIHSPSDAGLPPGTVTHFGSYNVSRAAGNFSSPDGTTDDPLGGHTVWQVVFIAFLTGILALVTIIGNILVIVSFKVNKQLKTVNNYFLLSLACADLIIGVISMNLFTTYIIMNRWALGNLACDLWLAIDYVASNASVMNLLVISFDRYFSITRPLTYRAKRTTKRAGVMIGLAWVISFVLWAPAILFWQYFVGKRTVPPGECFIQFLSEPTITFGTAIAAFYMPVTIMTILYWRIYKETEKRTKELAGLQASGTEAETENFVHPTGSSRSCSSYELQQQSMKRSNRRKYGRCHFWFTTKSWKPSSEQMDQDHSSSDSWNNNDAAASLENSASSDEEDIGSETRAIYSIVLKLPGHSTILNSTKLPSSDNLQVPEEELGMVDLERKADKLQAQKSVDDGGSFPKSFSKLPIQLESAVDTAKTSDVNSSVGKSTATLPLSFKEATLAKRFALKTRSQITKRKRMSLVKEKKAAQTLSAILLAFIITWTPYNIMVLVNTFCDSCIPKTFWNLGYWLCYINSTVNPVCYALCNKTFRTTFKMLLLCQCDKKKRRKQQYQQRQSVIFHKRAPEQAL
# Histamine H2 receptor = Histamine H2 receptor (Homo sapiens, UniProt P25021); test: Inhibition of histamine H2 receptor (unknown origin) by PDSP assay
# Histamine H2 receptor, sequence (P25021 whole entry): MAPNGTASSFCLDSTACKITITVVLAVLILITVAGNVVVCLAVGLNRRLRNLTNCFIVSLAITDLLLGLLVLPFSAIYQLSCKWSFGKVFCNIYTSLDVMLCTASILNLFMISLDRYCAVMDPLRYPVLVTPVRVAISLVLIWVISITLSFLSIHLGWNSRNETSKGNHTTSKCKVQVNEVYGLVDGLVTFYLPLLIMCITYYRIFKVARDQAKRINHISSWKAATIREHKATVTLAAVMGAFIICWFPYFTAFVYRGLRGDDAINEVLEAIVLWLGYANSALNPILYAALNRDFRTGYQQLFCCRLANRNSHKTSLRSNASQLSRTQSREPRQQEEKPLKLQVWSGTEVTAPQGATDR
# D(3) dopamine receptor = D(3) dopamine receptor (Homo sapiens, UniProt P35462); test: Inhibition of dopamine D3 receptor (unknown origin) by PDSP assay
# D(3) dopamine receptor, sequence (P35462 whole entry): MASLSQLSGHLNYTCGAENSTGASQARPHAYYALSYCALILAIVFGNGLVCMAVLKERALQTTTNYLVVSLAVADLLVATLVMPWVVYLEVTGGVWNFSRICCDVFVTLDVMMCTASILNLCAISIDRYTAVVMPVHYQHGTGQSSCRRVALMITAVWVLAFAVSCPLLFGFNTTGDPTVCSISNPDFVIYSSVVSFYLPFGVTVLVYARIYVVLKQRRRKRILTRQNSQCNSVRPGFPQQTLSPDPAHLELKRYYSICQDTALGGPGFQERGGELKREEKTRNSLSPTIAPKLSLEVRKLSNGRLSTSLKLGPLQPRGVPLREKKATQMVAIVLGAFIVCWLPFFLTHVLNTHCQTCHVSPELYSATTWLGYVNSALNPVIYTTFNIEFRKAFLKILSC
# [4] = molecular target: Sodium-dependent dopamine transporter (Homo sapiens, UniProt Q01959); test: Displacement of [3H]-WIN-35,428 from human DAT expressed in HEK cell membranes; parameters: species or system HEK293
# Sodium-dependent dopamine transporter, sequence (Q01959 whole entry): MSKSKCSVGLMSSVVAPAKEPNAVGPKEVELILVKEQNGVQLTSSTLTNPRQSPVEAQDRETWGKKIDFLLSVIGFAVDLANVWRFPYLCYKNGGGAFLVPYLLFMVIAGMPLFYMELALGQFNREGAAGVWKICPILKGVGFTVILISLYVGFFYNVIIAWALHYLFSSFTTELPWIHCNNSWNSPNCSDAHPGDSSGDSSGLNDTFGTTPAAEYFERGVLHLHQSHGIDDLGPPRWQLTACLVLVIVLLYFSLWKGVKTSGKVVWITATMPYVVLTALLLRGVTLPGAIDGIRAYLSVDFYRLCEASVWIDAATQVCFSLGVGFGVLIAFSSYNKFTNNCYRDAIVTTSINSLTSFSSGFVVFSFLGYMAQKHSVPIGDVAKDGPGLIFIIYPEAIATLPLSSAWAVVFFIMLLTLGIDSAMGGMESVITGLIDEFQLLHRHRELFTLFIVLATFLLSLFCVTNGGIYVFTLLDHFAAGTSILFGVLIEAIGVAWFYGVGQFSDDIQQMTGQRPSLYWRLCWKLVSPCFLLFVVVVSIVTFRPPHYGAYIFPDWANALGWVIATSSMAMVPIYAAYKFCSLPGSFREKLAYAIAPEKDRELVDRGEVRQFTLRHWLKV
# [5] = molecular target: T3, Muscarinic acetylcholine receptor M5 (Homo sapiens) (UniProt P08912); test: Inhibition of muscarinic M5 receptor (unknown origin) at 10 uM by PDSP assay relative to control
# T3 sequence (whole entry): T2 sequence (P08912 whole entry)
# [6] = molecular target: T4, Muscarinic acetylcholine receptor M2 (Homo sapiens) (UniProt P08172); test: Inhibition of muscarinic M2 receptor (unknown origin) at 10 uM by PDSP assay relative to control
# T4 sequence (whole entry): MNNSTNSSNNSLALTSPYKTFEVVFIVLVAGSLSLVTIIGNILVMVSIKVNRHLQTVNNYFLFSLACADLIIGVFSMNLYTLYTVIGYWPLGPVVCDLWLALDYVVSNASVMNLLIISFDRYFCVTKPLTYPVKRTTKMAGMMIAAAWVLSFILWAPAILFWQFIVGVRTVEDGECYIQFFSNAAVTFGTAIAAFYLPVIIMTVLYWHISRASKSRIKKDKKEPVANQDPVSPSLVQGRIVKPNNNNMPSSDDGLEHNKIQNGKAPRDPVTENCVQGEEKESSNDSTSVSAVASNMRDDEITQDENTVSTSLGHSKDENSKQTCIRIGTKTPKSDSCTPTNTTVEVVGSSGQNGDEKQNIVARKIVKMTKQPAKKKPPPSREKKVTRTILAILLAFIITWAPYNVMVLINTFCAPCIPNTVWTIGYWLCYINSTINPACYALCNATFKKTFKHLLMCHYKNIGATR
# [7] = molecular target: T5, Alpha-2B adrenergic receptor (Homo sapiens, UniProt P18089); test: Inhibition of adrenergic alpha2B receptor (unknown origin) by PDSP assay
# T5 sequence (P18089 whole entry): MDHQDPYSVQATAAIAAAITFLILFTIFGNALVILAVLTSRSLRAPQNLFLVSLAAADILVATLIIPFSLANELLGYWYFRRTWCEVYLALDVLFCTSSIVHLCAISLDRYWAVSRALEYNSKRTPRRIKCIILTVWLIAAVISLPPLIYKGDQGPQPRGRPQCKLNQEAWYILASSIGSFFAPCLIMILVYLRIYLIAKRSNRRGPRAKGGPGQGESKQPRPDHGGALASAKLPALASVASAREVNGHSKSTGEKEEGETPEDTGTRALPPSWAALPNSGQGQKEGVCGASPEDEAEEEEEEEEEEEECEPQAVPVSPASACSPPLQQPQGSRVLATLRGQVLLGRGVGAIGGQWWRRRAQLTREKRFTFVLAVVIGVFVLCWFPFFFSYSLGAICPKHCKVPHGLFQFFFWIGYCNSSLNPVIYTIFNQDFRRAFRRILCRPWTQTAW
# Histamine H1 receptor = Histamine H1 receptor (Homo sapiens, UniProt P35367); test: Inhibition of histamine H1 receptor (unknown origin) by PDSP assay
# Histamine H1 receptor, sequence (P35367 whole entry): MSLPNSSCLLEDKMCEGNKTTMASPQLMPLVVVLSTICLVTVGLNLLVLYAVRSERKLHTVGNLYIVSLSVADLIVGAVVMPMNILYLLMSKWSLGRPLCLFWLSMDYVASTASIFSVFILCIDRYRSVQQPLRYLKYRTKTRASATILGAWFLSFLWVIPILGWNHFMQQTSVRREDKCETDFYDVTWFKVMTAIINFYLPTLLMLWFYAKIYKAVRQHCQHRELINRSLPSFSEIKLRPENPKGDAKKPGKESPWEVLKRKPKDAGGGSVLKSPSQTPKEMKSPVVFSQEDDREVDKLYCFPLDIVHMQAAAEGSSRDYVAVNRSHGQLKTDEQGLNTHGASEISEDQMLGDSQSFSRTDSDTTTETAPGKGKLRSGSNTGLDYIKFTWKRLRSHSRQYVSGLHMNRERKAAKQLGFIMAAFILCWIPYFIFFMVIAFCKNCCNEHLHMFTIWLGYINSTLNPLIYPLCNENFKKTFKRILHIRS
# D(1B) dopamine receptor, sequence (P21918 whole entry): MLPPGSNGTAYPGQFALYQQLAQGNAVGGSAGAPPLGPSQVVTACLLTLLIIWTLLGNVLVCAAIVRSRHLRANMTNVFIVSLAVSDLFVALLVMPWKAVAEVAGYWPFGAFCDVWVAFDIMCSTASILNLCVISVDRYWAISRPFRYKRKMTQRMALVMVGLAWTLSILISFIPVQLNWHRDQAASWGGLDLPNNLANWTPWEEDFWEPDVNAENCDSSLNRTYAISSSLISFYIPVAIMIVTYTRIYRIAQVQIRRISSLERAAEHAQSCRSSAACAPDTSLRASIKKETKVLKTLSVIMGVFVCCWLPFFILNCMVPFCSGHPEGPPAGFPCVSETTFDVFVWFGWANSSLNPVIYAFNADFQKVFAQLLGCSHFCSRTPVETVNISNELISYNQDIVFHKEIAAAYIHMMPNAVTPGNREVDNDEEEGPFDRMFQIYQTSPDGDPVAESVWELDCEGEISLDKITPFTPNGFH
smiles,measurement,setting,value
c1ccc(CCN[C@H]2C3C4CC5C6C4CC3C6C52)cc1 (stereo not given in full),inhibition,D(1B) dopamine receptor,< 50%
same,inhibition,[1],< 50%
same,Ki,[2],2 µM
same,Ki,[3],2.15 µM
same,Ki,Histamine H2 receptor,3.9 µM
same,Ki,D(3) dopamine receptor,8.66 µM
same,Ki,[4],2.02 µM
CN(Cc1ccc2c(c1)OCO2)[C@H]1C2C3CC4C5C3CC2C5C41 (stereo not given in full),inhibition,[1],< 50%
same,Ki,Histamine H2 receptor,8.52 µM
same,inhibition,[5],< 50%
same,inhibition,[6],< 50%
COc1ccc(CN(C)[C@H]2C3C4CC5C6C4CC3C6C52)cc1OC (stereo not given in full),inhibition,[1],< 50%
same,Ki,Histamine H2 receptor,1.87 µM
same,inhibition,[5],< 50%
same,inhibition,[6],< 50%
CN(Cc1cccc(F)c1)[C@H]1C2C3CC4C2C(=O)C2C4C3C21 (stereo not given in full),inhibition,[1],< 50%
same,Ki,[3],1.78 µM
same,Ki,[4],4.52 µM
same,inhibition,[5],< 50%
CN(Cc1ccccc1)[C@H]1C2C3CC4C2C(=O)C2C4C3C21 (stereo not given in full),inhibition,[1],< 50%
same,Ki,[2],1.99 µM
same,Ki,[3],1.06 µM
c1ccc(CCN[C@H]2C3C4CC5C6C4CC3C6C52)nc1 (stereo not given in full),inhibition,D(1B) dopamine receptor,< 50%
same,Ki,[2],5.8 µM
same,Ki,[3],2.12 µM
same,Ki,[4],1.56 µM
CN(CCc1ccccn1)[C@H]1C2C3CC4C2C(=O)C2C4C3C21 (stereo not given in full),inhibition,[1],< 50%
same,Ki,[7],> 10 µM
same,inhibition,[5],< 50%
c1cc2c(cc1CN[C@H]1C3C4CC5C6C4CC3C6C51)OCO2 (stereo not given in full),inhibition,[1],< 50%
same,Ki,Histamine H2 receptor,1.16 µM
same,Ki,Histamine H1 receptor,4.18 µM
same,Ki,D(3) dopamine receptor,2.68 µM
same,Ki,[7],3.26 µM
same,inhibition,[5],< 50%
CN(Cc1cccnc1)[C@H]1C2C3CC4C5C3CC2C5C41 (stereo not given in full),inhibition,[1],< 50%
same,inhibition,[5],< 50%
CN(CCc1ccccc1)[C@H]1C2C3CC4C5C3CC2C5C41 (stereo not given in full),inhibition,[1],< 50%
same,Ki,Histamine H2 receptor,3.04 µM
same,Ki,D(3) dopamine receptor,> 10 µM
same,Ki,[7],1.27 µM
same,inhibition,[5],< 50%
same,inhibition,[6],< 50%
CN(Cc1cccnc1)[C@H]1C2C3CC4C2C(=O)C2C4C3C21 (stereo not given in full),inhibition,[1],< 50%
same,inhibition,[5],< 50%
c1ccc(CN[C@H]2C3C4CC5C6C4CC3C6C52)cc1 (stereo not given in full),inhibition,D(1B) dopamine receptor,< 50%
same,Ki,Histamine H2 receptor,3.47 µM
same,Ki,Histamine H1 receptor,> 10 µM
same,Ki,[4],3.48 µM
same,inhibition,[5],< 50%
same,inhibition,[6],< 50%
CN(CCc1ccccc1)[C@H]1C2C3CC4C2C(=O)C2C4C3C21 (stereo not given in full),inhibition,[1],< 50%
same,Ki,[2],2.42 µM
same,Ki,Histamine H2 receptor,> 10 µM
same,Ki,[4],1.29 µM
COc1cc(CN[C@H]2C3C4CC5C6C4CC3C6C52)cc(OC)c1OC (stereo not given in full),inhibition,[1],< 50%
same,Ki,Histamine H2 receptor,1.73 µM
same,Ki,Histamine H1 receptor,5.57 µM
same,Ki,D(3) dopamine receptor,1.05 µM
same,Ki,[7],0.665 µM
same,inhibition,[5],< 50%
same,inhibition,[6],< 50%
COc1ccc(CN[C@H]2C3C4CC5C6C4CC3C6C52)cc1OC (stereo not given in full),inhibition,D(1B) dopamine receptor,< 50%
same,inhibition,[1],< 50%
same,Ki,Histamine H2 receptor,1.48 µM
same,Ki,Histamine H1 receptor,1.36 µM
same,inhibition,[5],< 50%
same,inhibition,[6],< 50%
CN(CCc1cccc(F)c1)[C@H]1C2C3CC4C2C(=O)C2C4C3C21 (stereo not given in full),inhibition,[1],< 50%
same,Ki,[2],4.24 µM
same,Ki,Histamine H1 receptor,> 10 µM
C1C2C3CC4C2C2C1C3[C@H](NCC13C5C6C7C5C1C7C63)C42 (stereo not given in full),inhibition,D(1B) dopamine receptor,< 50%
same,inhibition,[1],< 50%
same,Ki,[2],0.595 µM
same,Ki,[3],0.466 µM
same,Ki,Histamine H2 receptor,6.27 µM
same,Ki,Histamine H1 receptor,4.74 µM
same,Ki,D(3) dopamine receptor,5.36 µM
same,Ki,[7],1.01 µM
same,Ki,[4],0.126 µM
CN(Cc1ccccc1)[C@H]1C2C3CC4C5C3CC2C5C41 (stereo not given in full),inhibition,[1],< 50%
same,Ki,Histamine H2 receptor,> 10 µM
same,Ki,[4],> 10 µM
same,inhibition,[5],< 50%
same,inhibition,[6],< 50%
COc1cc(CN(C)[C@H]2C3C4CC5C6C4CC3C6C52)cc(OC)c1OC (stereo not given in full),inhibition,[1],< 50%
same,Ki,[4],> 10 µM
same,inhibition,[5],< 50%
same,inhibition,[6],< 50%
CN(CCCc1cccc(F)c1)[C@H]1C2C3CC4C2C(=O)C2C4C3C21 (stereo not given in full),inhibition,[1],< 50%
same,Ki,[2],2.91 µM
same,Ki,[3],1.3 µM
COc1ccc(CN(C)[C@H]2C3C4CC5C3C(=O)C3C5C4C32)cc1OC (stereo not given in full),inhibition,[1],< 50%
same,inhibition,[5],< 50%
same,inhibition,[6],< 50%
CN(CC1CCCCC1)[C@H]1C2C3CC4C5C3CC2C5C41 (stereo not given in full),inhibition,D(1B) dopamine receptor,< 50%
same,inhibition,[5],< 50%
same,inhibition,[6],< 50%
C1CCC(CN[C@H]2C3C4CC5C6C4CC3C6C52)CC1 (stereo not given in full),inhibition,D(1B) dopamine receptor,< 50%
same,inhibition,[1],< 50%
same,Ki,[2],3 µM
same,Ki,D(3) dopamine receptor,> 10 µM
same,Ki,[7],2.54 µM
CN(CCc1ccccn1)[C@H]1C2C3CC4C5C3CC2C5C41 (stereo not given in full),inhibition,D(1B) dopamine receptor,< 50%
same,inhibition,[1],< 50%
same,inhibition,[5],< 50%
CN(CCCc1cccc(F)c1)[C@H]1C2C3CC4C5C3CC2C5C41 (stereo not given in full),inhibition,[1],< 50%
same,Ki,D(3) dopamine receptor,> 10 µM
same,inhibition,[5],< 50%
same,inhibition,[6],< 50%
